Laboratory results published in patent US7910579B2, “Benzoxazole derivatives” (Tohoku University, priority 2006, dated 2011).

How the values were obtained:
[1] = test system: histidine-requiring Salmonella typhimurium TA100 and TA98 strains; test: Mutagenicity Test (reverse mutation test); assay type: cell-based; settings: for Relative Activity in the presence of S9Mix / Relative Activity in the absence of S9Mix: reverse mutation test; for Relative Activity in the presence of S9Mix: key: minus: The number of colonies after reverse mutation did not increase at least two times that of the negative control
Outline: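 Preincubation reverse-mutation test in S. typhimurium TA100 and TA98, with and without S9mix, 20 min at 37° C, then 48 h at 37° C on minimal glucose agar. Six doses (common ratio 2) in DMSO, top dose 5000 μg/plate or growth-inhibiting dose. Revertant colonies counted; positive at ≥2-fold over DMSO control with dose dependency or reproducibility.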

[2] = Brain Permeability Test Through HPLC; assay type: in vivo; settings: mice, 2 minutes after intravenous administration
Description: A compound of the invention was intravenously administered to mice, and tested for its in-vivo brain permeability in the mice.
(1) Slc:ICR mice (by Nippon SLC) (body weight, 30 to 40 g; n=3) were used.
(2) A test compound was dissolved in a mixture of 5% Tween 80-5% ethyl alcohol-5% 1 N HCl-physiological saline water, and injected into the test mouse via its tail vein. Two minutes after the administration, the blood was collected from the test mouse under ether anesthesia via its abdominal aorta using a heparin-steeped syringe, and the brain material was collected from it.
(3) After collected, the blood was centrifuged at 4° C. and 14,000 rpm for 10 minutes, and the supernatant was stored at −80° C. as plasma. After collected, the brain material (including the cerebellum) was stored at −80° C.
(4) 0.3 ml of acetonitrile was added to 0.1 ml of the plasma, then vortexed, and centrifuged at 4° C. and under 10,000 G for 5 minutes. After centrifuged, 0.2 ml of the resulting supernatant was transferred into Mini-Uniprep (Whatman), then 0.2 ml of 20 mM phosphate buffer was added to it and filtered. 0.2 ml of the resulting filtrate was analyzed through HPLC (Shiseido Nanospace SI-2; pump, 3001; UV-VIS detector, 3002; column thermostat, 3004; fluorescence detector, 3013).
(5) 2 ml of methanol was added to the brain, homogenized, and centrifuged at 4° C. and 3000 or 4000 rpm for 10 minutes. After centrifuged, 500 μl of the resulting supernatant was diluted 10-fold with 20 mM phosphate buffer. (i) 2 to 3 ml of acetonitrile, (ii) 2 to 5 ml of methanol and (iii) 4 to 6 ml of ultra-pure water were led through a cartridge for solid-phase extraction (J. T. Baker Speedisk) in that order, and the 10-fold diluted supernatant solution was led through it. Via an empty syringe, air was applied to the cartridge for solid-phase extraction, two or three times to remove water, and then this was eluted with about 500 μl of acetonitrile or methanol, and the eluate was diluted 2-fold with 20 mM phosphate buffer. 0.2 ml of the resulting solution was analyzed through HPLC.
(6) The test compound content in the plasma and in the brain was determined relative to the dose of the compound (% ID (injected dose)/g or ml).

[3] = irrespective of the absence or presence of S9mix

SMILES | Relative activity (mutagenicity) ([1]; in the presence of S9mix) | Relative Activity in the presence of S9Mix [1] | Relative Activity in the absence of S9Mix [1] | Brain Permeability: Brain [2] | Brain Permeability: Plasma [2] | Relative activity (mutagenicity) [1, 3]
CN(C)c1ncc(/C=C/c2nc3ccc(OC(CO)CF)cc3o2)s1 (stereo not drawn) [THK-763, (E)-6-[(1-fluoromethyl-2-hydroxy)ethoxy]-2-[2-[2-dimethylamino-thiazol-5-yl]ethenyl]benzoxazole] | weak | minus | 3058 | – | – | –
FCCOc1ccc2nc(/C=C/c3cnc(N4CCOCC4)s3)oc2c1 [THK-525, 6-(2-fluoro-ethoxy)-2-[2-(2-morpholin-4-yl-thiazol-5-yl)-vinyl]-benzoxazole] | – | minus | minus | 7.9 % ID/g or ml | 3.1 % ID/g or ml | minus
OCC(CF)Oc1ccc2nc(/C=C/c3cnc(N4CCOCC4)s3)oc2c1 (stereo not drawn) [THK-702, (E)-2-[2-(2-morpholinothiazol-5-yl)ethenyl]-6-[(1-fluoromethyl-2-hydroxy)ethoxy]-benzoxazole] | – | minus | minus | 5.1 % ID/g or ml | 2.7 % ID/g or ml | minus
CNc1ncc(/C=C/c2nc3ccc(OC(CO)CF)cc3o2)s1 (stereo not drawn) [THK-761, (E)-6-[(1-fluoromethyl-2-hydroxy)ethoxy]-2-[2-[2-methylaminothiazol-5-yl]ethenyl]-benzoxazole] | weak | minus | 11995 | – | – | –
OCC(CF)Oc1ccc2nc(/C=C/c3cnc(N4CCCC4)s3)oc2c1 (stereo not drawn) [THK-752, (E)-6-[(1-fluoromethyl-2-hydroxy)ethoxy]-2-[2-[2-(pyrrolidin-1-yl)-thiazol-5-yl]ethenyl]benzoxazole] | – | minus | minus | 6.7 % ID/g or ml | 1.9 % ID/g or ml | minus
